# Assay results from PubChem BioAssay AID204 (DTP/NCI, 2004).
# Where “and” joins values, the source holds several entries; their conditions need not be identical. Equal values may be shown once. Toxic doses and inconclusive results are not listed.
# Test system: BDF1 mice, P288 methotrexate-resistant leukemia, survival T/C
# Experiment: NCI In Vivo Anticancer Drug Screen. Data for tumor model P288 Lymphocytic Leukemia resistant to methotrexate; NSC 740 (intraperitoneal) in B6D2F1 (BDF1) mice
# Details: endpoint: median survival time, schedule: Q01DX010 (ip), higher = longer survival
# Description: The antitumor activity of compounds was measured in mice bearing transplantable tumors. Survival or tumor size were measured and the results are expressed as the measurement made in the treated group (T) divided by the measurement made in the vehicle treated control group (C). The tumor model used in this assay is P288 Lymphocytic Leukemia resistant to methotrexate; NSC 740 (intraperitoneal) in B6D2F1 (BDF1) mice
# [1] = dose: 25.0 mg/kg/injection, vehicle: saline
# [2] = dose: 15.0 mg/kg/injection, vehicle: saline
# [3] = dose: 30.0 mg/kg/injection, vehicle: saline
# [4] = dose: 60.0 mg/kg/injection, vehicle: saline
# [5] = dose: 8.0 mg/kg/injection, vehicle: saline
# [6] = dose: 0.5 mg/kg/injection, vehicle: saline
smiles,measurement,setting,value
CCCSc1ncnc2nc[nH]c12,T/C,"dose: 15.6 mg/kg/injection, vehicle: saline",104 % of control
same,T/C,"dose: 31.3 mg/kg/injection, vehicle: saline",90 % of control and 100 % of control
same,T/C,"dose: 62.5 mg/kg/injection, vehicle: saline",90 % of control and 104 % of control
same,T/C,"dose: 125.0 mg/kg/injection, vehicle: saline",90 % of control
C[C@H]1C(=O)O[C@@H]2CCN3CC=C(COC(=O)[C@](C)(O)[C@@]1(C)O)[C@H]23,T/C,"dose: 3.13 mg/kg/injection, vehicle: saline",100 % of control and 103 % of control
same,T/C,"dose: 6.25 mg/kg/injection, vehicle: saline",91 % of control and 111 % of control
same,T/C,"dose: 12.5 mg/kg/injection, vehicle: saline",91 % of control
same,T/C,[1],91 % of control and 96 % of control
Clc1ncnc2nc[nH]c12,T/C,"dose: 7.5 mg/kg/injection, vehicle: saline",93 % of control
same,T/C,[2],93 % of control
same,T/C,[3],93 % of control
same,T/C,[4],100 % of control
C[n+]1c2ccccc2nc2c(N)cc(N)cc21,T/C,[5],115 % of control
N#[N+]c1cnc([O-])[nH]c1=O,T/C,"dose: 1.25 mg/kg/injection, vehicle: saline",100 % of control
same,T/C,"dose: 2.5 mg/kg/injection, vehicle: saline",116 % of control and 118 % of control
c1ccc(CNc2ncnc3[nH]ncc23)cc1,T/C,[5],90 % of control and 115 % of control
same,T/C,"dose: 16.0 mg/kg/injection, vehicle: saline",100 % of control and 110 % of control
same,T/C,"dose: 32.0 mg/kg/injection, vehicle: saline",100 % of control and 110 % of control
same,T/C,"dose: 64.0 mg/kg/injection, vehicle: saline",110 % of control
CS(=O)(=O)OCCN(CCOS(C)(=O)=O)c1ccc(N=O)cc1,T/C,[6],120 % of control
CC1CCOS(=O)O1 (centres undefined),T/C,"dose: 10.0 mg/kg/injection, vehicle: saline",91 % of control and 95 % of control
same,T/C,"dose: 20.0 mg/kg/injection, vehicle: saline",90 % of control
same,T/C,"dose: 40.0 mg/kg/injection, vehicle: saline",95 % of control
same,T/C,"dose: 80.0 mg/kg/injection, vehicle: saline",90 % of control
C[N+](C)(C)c1ncnc2nc[nH]c12,T/C,[2],90 % of control
same,T/C,[3],100 % of control
same,T/C,[4],90 % of control and 100 % of control
same,T/C,"dose: 120.0 mg/kg/injection, vehicle: saline",105 % of control and 113 % of control
CO[C@H](C(=O)[C@@H](O)[C@@H](C)O)[C@@H]1Cc2cc3cc(OC4CC(OC5CC(O)C(O)C(C)O5)C(O)C(C)O4)c(C)c(O)c3c(O)c2C(=O)[C@H]1OC1CC(OC2CC(OC3CC(C)(O)C(O)C(C)O3)C(O)C(C)O2)C(O)C(C)O1 (some centres undefined),T/C,"dose: 0.25 mg/kg/injection, vehicle: saline",95 % of control
same,T/C,[6],95 % of control
same,T/C,"dose: 1.0 mg/kg/injection, vehicle: saline",104 % of control
O[C@H](CN1CC1)[C@@H](O)CN1CC1,T/C,"dose: 62.5 micrograms/kg/injection, vehicle: saline",100 % of control
same,T/C,"dose: 250.0 micrograms/kg/injection, vehicle: saline",155 % of control and 181 % of control
CS(=O)(=O)OCCCl,T/C,"dose: 18.8 mg/kg/injection, vehicle: saline",94 % of control
same,T/C,"dose: 75.0 mg/kg/injection, vehicle: saline",90 % of control and 110 % of control
same,T/C,"dose: 150.0 mg/kg/injection, vehicle: saline",118 % of control and 121 % of control
Nc1nc(N)c2nc(CNc3ccc(C(=O)NC(CCC(=O)O)C(=O)O)cc3)cnc2n1 (centres undefined),T/C,"dose: 0.03 mg/kg/injection, vehicle: other",90 % of control and 111 % of control
same,T/C,"dose: 0.05 mg/kg/injection, vehicle: other",100 % of control
same,T/C,"dose: 0.1 mg/kg/injection, vehicle: other",100 % of control
same,T/C,"dose: 0.2 mg/kg/injection, vehicle: other",110 % of control and 111 % of control
O=C1C(NC(=O)C2CCCCC2)=C(N2CC2)C(=O)C(NC(=O)C2CCCCC2)=C1N1CC1,T/C,[1],90 % of control and 100 % of control
same,T/C,"dose: 50.0 mg/kg/injection, vehicle: saline",90 % of control and 100 % of control
same,T/C,"dose: 100.0 mg/kg/injection, vehicle: saline",90 % of control and 100 % of control
same,T/C,"dose: 200.0 mg/kg/injection, vehicle: saline",100 % of control and 110 % of control
